Reference: US20230391841A1, “MACROCYCLIC PEPTIDES” (Herantis Pharma OYJ, priority 2019, published 2023)
Bridge positions count the residues as written; N and C are the ends. Peptide text beside a SMILES is read from it.

Key:
[1] = In vitro metabolic stability in rat plasma; type: in vitro ADME; details: 1 μM, 37° C., up to 120 min
Protocol: The linear and macrocyclic compounds 1-14 and 23-26 (SEQ ID NOs: 1-14 and 23-26) were incubated in concentration 1 μM with rat plasma (Sprague-Dawley, male; 400 μl) for different time points (0, 20, 40, 60 or 120 min) at 37° C. The incubation was terminated by acetonitrile. The collected samples were centrifuged for 20 min at 2272×g and analyzed. io Stock solutions were prepared using 50% DMSO, and the compounds were spiked 1/100 to incubation to have final DMSO content of 0.5%. The samples were analyzed by UHPLC/PDA with high resolution mass spectrometry (QE-Orbitrap-MS on DDI mode) to monitor disappearance of the compound. Enalapril 1 μM was used as a disappearance rate control. For analysis of compounds 9, 10, 13 and 14 stock solutions were prepared with PBS, and samples were analyzed by UHPLC-ToF mass spectrometry. The analytical method was optimized by using the parent compounds for optimum chromatographic properties (peak shape and retention) and mass spectrometric ionization. The ion chromatograms were extracted from the total ion chromatograms using calculated monoisotopic accurate masses with 5 mDa window. Disappearance was based on LC/MS peak areas, marking 0 min as 100%.
The first-order rate constants k (min-1) of the metabolism were obtained from the slope of time versus logarithm (% of remaining compound) plot using Excel software. The in vitro half-life (t1/2) of study compound is defined as: t1/2=In2/k. Calculated half-life is based on compound disappearance from rat plasma.

rat hepatocytes = test: In vitro metabolic stability in rat hepatocytes; type: in vitro ADME; details: 1 μM, 37° C., up to 60 min
Protocol: The linear or macrocyclic compounds 1-14 and 23-26 (SEQ ID NOs: […]) were incubated in concentration 1 μM with pooled cryopreserved rat hepatocytes (Sprague-Dawley, male; 400 pl, 1.0 million viable cells/ml for compounds 1-8, 11-12 and 23-26 or 100 μl, 0.1 million viable cells/ml for compounds 9-10 and 13-14) for different time points (0, 10, 20, 40 or 60 min) at 37° C. The cell density and viability were determined by trypan blue exclusion method. The incubation was terminated by acetonitrile. The collected samples were centrifuged for 20 min at 2272×g and analyzed. The samples were analyzed is by UHPLC/PDA with high resolution mass spectrometry (QE-Orbitrap-MS on DDI mode) (compounds 1-8, 11-12 and 23-26) or HHPLC-ToF mass spectrometry (for compounds 9-and 13-14) to monitor disappearance of the compound. Verapramil 1 μM was used as a disappearance rate control. The analytical method was optimized by using the parent compounds for optimum chromatographic properties (peak shape and retention) and mass spectrometric ionization. The Ion chromatograms were extracted from the total ion chromatograms using calculated monoisotopic accurate masses with 5 mDa window. Disappearance was based on LC/MS peak areas, marking 0 min as 100%. The first-order rate constants k (min-1) of the metabolism were obtained from the slope of time versus logarithm (% of remaining compound) plot using Excel software. The in vitro half-life (t1/2) of study compound is defined as: t1/2In2/k. Calculated half-life is based on compound disappearance in rat liver hepatocytes.

human hepatocytes = test: In vitro metabolic stability in human hepatocytes; type: in vitro ADME; details: 1 μM, 37° C., up to 60 min
Protocol: The linear or macrocyclic compounds 1-8, 11-14 and 23-26 (SEQ ID NOs: 1-8, 11-14 and 23-26) were incubated in concentration 1 μM with pooled cryopreserved human hepatocytes (mixed gender; 400 pl, 1.0 million viable cells/ml) for different time points (0, 20, 40 or 60 min) at 37° C. The cell density and viability were determined by trypan blue is exclusion method. The incubation was terminated by acetonitrile. The collected samples were centrifuged for 20 min at 2272×g and analyzed. The samples were analyzed by UPLC/PDA with high resolution mass spectrometry (QE-Orbitrap-MS on DDI mode) to monitor disappearance of the compound. Verapramil 1 μM was used as a disappearance rate control. The analytical method was optimized by using the parent compounds for optimum chromatographic properties (peak shape and retention) and mass spectrometric ionization. The Ion chromatograms were extracted from the total ion chromatograms using calculated monoisotopic accurate masses with 5 mDa window. Disappearance was based on LC/MS peak areas, marking 0 min as 100%. The first-order rate constants k (min-1) of the metabolism were obtained from the slope of time versus logarithm (% of remaining compound) plot using Excel software. The in vitro half-life (t1/2) of study compound is defined as: t1/2In2/k. Calculated half-life is based on compound disappearance in human liver hepatocytes.

[2] = tested on: 3D in vitro model of blood-brain barrier; test: Permeation in a 3D in vitro model of blood-brain barrier; type: in vitro ADME, human endothelial cells, rat astrocytes and cortical neurons; details: 500 nM, 2 h
Protocol: Due to the interest of developing CDNF- and MANF-derived peptides for treatment of CNS diseases with peripheral route of administration, and the fact that macrocyclization can improve cell-penetration and distribution properties of peptides, the ability of the compounds to pass the blood-brain barrier was tested in an established in vitro model of the blood-brain barrier. For this purpose, macrocyclic and linear compounds were incubated at 500 nM for 2 h in a two-compartment in vitro blood-brain barrier model (n=4) followed by sample collection is and LC-MS/MS analysis.
Primary culture of astrocytes. Rat astrocytes were prepared from a E15 embryos. Briefly, pregnant female rats (Wistar, Janvier Labs) of 15 days of gestation were deeply anesthetized in a (CO2 chamber) and then killed by cervical dislocation. Fetuses were collected and immediately placed in ice-cold L15 Leibovitz medium with a 2% penicillin (10,000 U/mL) and streptomycin (10 mg/mL) solution (PS) and 1% bovine serum albumin (BSA). Full brains were treated for 20 min at 37° C. with a trypsin- EDTA solution at a final concentration of 0.05% trypsin and 0.02% EDTA. Dissociated cells were cultured in DMEM 10% fetal calf serum. Purified astrocytes were used at passage 4 (P4).
Culture of human endothelial cells. A vial of HBMEC (Primary Human Brain Microvascular Endothelial Cells, ACBRI 376) was used at a specific passage 8 (P8).
Primary culture of cortical neurons. Rat cortical neurons were cultured as described by Callizot et al., 2013 with modification. Briefly, pregnant female rats (Wistar, Janvier Labs) of […] were deeply anesthetized in a CO2 chamber and then killed by cervical io dislocation. Fetuses were collected and immediately placed in ice-cold L15 Leibovitz medium with a 2% penicillin (10,000 U/mL) and streptomycin (10 mg/mL) solution (PS) and 1% bovine serum albumin (BSA). Cortices were treated for 20 min at 37° C. with a trypsin-EDTA solution at a final concentration of 0.05% trypsin and 0.02% EDTA. The dissociation was stopped by addition of Dulbecco's modified Eagle's medium (DMEM) with 4.5 g/L of glucose, containing is DNAse I grade II (final concentration 0.5 mg/m L) and 10% fetal calf serum (FCS). Cells were mechanically dissociated by three forced passages through the tip of a 10-m1 pipette. Cells were then centrifuged at 515×g for 10 min at 4° C. The pellet resuspended in a defined culture medium consisting of Neurobasal medium with a 2% solution of B27 supplement, 2 mmol/L of L-glutamine, 2% of PS solution, 10 ng/mL of brain-derived neurotrophic factor (BDNF). Viable cells were counted in a Neubauer cytometer, using the trypan blue exclusion test. The cortical neurons were seeded in the bottom of well pre-coated with poly-L-lysine at a density of 255,000 per well in 24-well plate with insert and cultured at 37° C. in an air (95%)-CO2 (5%) incubator. The culture medium was changed every other day.
Co-Culture of endothelial cells, astrocytes and primary cortical neurons. The procedure was performed as previously published (Xue et al., 2013 with modifications, Callizot et al., 2017). Briefly, on day 0, purified astrocytes (P4) were rapidly thawed in a water bath at 37° C. The cells were immediately put in DMEM containing 10% of FCS. Cell suspension was centrifuged at 515×g for 5 min at 4° C. and the pellets were suspended in DMEM F12 containing 10% of FCS. Cells were seeded in the outer side of the insert membrane (PET, 1 μm) at the density of 45,000 cells per insert and cultured at 37° C. in an air (95%)-CO2 (5%) incubator. Thirty-six (36) hours after the astrocytes seeding, HBMEC (P8) were rapidly thawed in a water bath at 37° C. and immediately put in DMEM containing 10% of FCS. Cell suspension was centrifuged at 515×g for 5 min at 4° C. and the pellets were suspended in EGM-2 bullet kit containing 5% of FCS, 1% of PS solution, 1.4 μM of Hydrocortisone, 5 μg/mL of acid ascorbic, 1% of lipid mixture, 10 mM of HEPES, 1 ng/mL of bFGF. […]

stability in rat plasma as compared to linear counterpart [1]: improved stability | stability in rat hepatocytes as compared to linear counterpart (rat hepatocytes): significantly improved stability | stability in human hepatocytes as compared to linear counterpart (human hepatocytes): significantly improved stability | ability to pass through the in vitro blood-brain barrier as compared to linear counterpart [2]: improved ability to pass
Compound: CC[C@H](C)[C@@H]1NC(=O)[C@H](CCCCN)NC(=O)[C@H](CCCCN)NC(=O)[C@H](CC(C)C)NC(=O)[C@H](CCC(=O)O)NC(=O)[C@H](CCCCN)NC(=O)[C@H](C(C)C)NC(=O)[C@H](CCCNC(=N)N)NC(=O)[C@H](CC(C)C)NC(=O)[C@H](CCCCN)NC(=O)[C@H](CCCCN)NC(=O)[C@H](CC(C)C)NC(=O)[C@H](CC(=O)O)NC(=O)[C@H](C(C)C)NC(=O)[C@H](CCC(=O)O)NC(=O)[C@H](C)NC(=O)[C@@H]2CSSC[C@H](NC(=O)[C@H]([C@@H](C)O)NC(=O)[C@H](CCC(=O)O)NC(=O)CNC(=O)[C@H](Cc3c[nH]c4ccccc34)NC(=O)[C@H](CC(=O)O)NC(=O)[C@H](CC(=O)O)NC(=O)[C@H](CC(C)C)NC1=O)C(=O)N[C@@H](CCCCN)C(=O)NCC(=O)N2 [Compound 4] (cyclo(AEVDLKKLRVKELKKILDDWGETCKGC); disulfide 24-27)
